According to ChEMBL document CHEMBL2029265, “2-(Pyrrolidin-1-yl)ethyl-3,4-dihydroisoquinolin-1(2H)-one derivatives as potent and selective histamine-3 receptor antagonists” (J Med Chem, 2012):

How the values were obtained:
Histamine H3 receptor [1] = biological target: Histamine H3 receptor (Rattus norvegicus, UniProt Q9QYN8); experiment: Displacement of [3H]-(R)-alpha-methylhistamine from rat H3 receptor expressed in HEK293T cells after 120 mins by scintillation counting; type: cell-based, HEK-293T
Histamine H3 receptor (Rattus norvegicus, UniProt Q9QYN8), sequence (Q9QYN8 whole entry): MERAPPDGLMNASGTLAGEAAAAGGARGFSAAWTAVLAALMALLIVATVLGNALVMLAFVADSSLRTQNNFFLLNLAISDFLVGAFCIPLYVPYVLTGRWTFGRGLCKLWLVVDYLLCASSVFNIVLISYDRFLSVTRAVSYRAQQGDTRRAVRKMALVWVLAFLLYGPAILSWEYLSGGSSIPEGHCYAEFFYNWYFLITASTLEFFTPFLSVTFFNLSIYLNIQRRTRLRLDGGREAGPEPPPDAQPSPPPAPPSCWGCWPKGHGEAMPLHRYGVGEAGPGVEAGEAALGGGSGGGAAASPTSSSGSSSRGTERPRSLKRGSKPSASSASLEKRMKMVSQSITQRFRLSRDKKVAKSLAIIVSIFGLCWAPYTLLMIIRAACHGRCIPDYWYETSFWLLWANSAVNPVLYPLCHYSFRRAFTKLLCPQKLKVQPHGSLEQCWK

Histamine H3 receptor [2] = biological target: Histamine H3 receptor (Homo sapiens, UniProt Q9Y5N1); experiment: Displacement of [3H]-(R)-alpha-methylhistamine from human H3 receptor expressed in HEK293T cells after 120 mins by scintillation counting; type: cell-based, HEK-293T
Histamine H3 receptor (Homo sapiens, UniProt Q9Y5N1), sequence (Q9Y5N1 whole entry): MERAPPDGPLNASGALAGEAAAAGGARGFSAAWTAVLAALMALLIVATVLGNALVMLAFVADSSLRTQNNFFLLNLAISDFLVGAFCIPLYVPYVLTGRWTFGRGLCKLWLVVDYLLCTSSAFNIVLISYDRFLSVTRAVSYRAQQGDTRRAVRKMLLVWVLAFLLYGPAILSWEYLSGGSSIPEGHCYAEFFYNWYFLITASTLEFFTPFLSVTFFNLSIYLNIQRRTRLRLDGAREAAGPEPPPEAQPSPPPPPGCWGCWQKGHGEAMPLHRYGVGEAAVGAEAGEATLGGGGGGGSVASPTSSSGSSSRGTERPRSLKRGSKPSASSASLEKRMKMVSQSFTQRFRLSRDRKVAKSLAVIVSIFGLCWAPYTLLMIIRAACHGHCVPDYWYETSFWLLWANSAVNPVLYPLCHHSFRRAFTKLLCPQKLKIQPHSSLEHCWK

[3] = biological target: Voltage-gated inwardly rectifying potassium channel KCNH2 (Homo sapiens, UniProt Q12809); experiment: Inhibition of human ERG by IonWorks assay
Voltage-gated inwardly rectifying potassium channel KCNH2, sequence (Q12809 whole entry): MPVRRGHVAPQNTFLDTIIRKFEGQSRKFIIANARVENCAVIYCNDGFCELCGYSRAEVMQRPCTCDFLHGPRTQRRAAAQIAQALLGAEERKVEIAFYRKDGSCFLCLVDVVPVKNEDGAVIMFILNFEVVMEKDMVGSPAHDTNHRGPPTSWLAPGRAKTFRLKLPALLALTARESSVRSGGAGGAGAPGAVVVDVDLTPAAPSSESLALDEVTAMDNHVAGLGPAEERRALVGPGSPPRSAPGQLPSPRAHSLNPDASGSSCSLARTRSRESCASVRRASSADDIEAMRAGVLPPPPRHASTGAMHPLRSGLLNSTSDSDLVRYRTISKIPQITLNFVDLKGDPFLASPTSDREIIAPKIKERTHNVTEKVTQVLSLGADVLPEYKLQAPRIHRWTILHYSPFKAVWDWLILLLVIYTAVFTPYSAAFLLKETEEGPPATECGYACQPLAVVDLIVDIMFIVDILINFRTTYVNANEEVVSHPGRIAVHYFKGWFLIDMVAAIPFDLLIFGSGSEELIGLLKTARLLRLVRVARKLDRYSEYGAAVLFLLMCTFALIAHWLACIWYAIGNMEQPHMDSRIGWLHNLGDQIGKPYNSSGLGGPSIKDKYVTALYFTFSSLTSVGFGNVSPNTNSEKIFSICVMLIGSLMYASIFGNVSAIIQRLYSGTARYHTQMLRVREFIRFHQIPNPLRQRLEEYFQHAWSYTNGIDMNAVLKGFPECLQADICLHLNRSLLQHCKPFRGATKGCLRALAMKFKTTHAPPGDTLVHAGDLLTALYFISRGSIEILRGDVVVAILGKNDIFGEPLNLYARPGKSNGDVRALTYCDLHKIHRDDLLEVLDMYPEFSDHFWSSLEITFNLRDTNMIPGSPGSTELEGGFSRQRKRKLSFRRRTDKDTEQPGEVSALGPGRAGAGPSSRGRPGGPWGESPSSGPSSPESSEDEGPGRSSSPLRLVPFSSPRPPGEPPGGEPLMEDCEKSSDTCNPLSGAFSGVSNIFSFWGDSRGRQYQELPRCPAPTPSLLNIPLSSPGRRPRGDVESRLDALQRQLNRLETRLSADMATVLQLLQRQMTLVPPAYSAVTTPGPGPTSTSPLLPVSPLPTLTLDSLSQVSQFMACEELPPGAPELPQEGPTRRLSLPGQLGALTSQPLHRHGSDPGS

Histamine H1 receptor = Histamine H1 receptor (Homo sapiens, UniProt P35367); experiment: Binding affinity to H1 receptor
[4] = biological target: 5-hydroxytryptamine receptor 2B (Homo sapiens, UniProt P41595); experiment: Binding affinity to 5-HT2B receptor
Histamine H2 receptor = Histamine H2 receptor (Homo sapiens, UniProt P25021); experiment: Binding affinity to H2 receptor
Histamine H2 receptor, sequence (P25021 whole entry): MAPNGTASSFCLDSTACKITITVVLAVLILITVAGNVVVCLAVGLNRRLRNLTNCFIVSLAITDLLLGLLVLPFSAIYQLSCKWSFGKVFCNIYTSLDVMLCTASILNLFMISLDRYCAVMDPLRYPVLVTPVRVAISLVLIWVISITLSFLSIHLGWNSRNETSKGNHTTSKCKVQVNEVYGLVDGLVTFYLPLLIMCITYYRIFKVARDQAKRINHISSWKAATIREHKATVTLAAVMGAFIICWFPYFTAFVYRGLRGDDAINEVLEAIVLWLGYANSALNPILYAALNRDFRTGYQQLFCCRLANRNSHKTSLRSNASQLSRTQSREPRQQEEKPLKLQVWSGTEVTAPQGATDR

D(2) dopamine receptor = D(2) dopamine receptor (Homo sapiens, UniProt P14416); experiment: Binding affinity to D2 receptor
[5] = biological target: Sodium-dependent serotonin transporter (Homo sapiens, UniProt P31645); experiment: Binding affinity to 5-HT transporter
Sodium-dependent serotonin transporter, sequence (P31645 whole entry): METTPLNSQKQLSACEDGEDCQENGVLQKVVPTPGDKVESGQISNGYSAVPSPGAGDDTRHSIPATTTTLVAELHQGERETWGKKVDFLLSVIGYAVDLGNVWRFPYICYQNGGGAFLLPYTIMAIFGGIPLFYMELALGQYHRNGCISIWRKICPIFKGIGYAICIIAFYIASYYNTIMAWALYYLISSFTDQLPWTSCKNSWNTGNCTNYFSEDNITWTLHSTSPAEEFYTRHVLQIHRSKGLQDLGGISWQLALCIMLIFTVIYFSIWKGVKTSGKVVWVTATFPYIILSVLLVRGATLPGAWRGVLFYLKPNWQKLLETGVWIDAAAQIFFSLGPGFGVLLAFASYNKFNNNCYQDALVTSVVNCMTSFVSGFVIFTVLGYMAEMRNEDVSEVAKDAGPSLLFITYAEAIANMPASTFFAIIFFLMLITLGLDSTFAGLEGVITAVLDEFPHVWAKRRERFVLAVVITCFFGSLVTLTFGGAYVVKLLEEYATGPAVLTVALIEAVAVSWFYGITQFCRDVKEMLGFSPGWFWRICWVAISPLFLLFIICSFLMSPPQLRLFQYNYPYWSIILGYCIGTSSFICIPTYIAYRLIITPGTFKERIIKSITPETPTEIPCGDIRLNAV

[6] = biological target: Sodium-dependent dopamine transporter (Homo sapiens, UniProt Q01959); experiment: Binding affinity to DAT
[7] = biological target: T1, Alpha-2A adrenergic receptor (Homo sapiens, UniProt P08913); experiment: Binding affinity to alpha-2A receptor
T1 sequence (P08913 whole entry): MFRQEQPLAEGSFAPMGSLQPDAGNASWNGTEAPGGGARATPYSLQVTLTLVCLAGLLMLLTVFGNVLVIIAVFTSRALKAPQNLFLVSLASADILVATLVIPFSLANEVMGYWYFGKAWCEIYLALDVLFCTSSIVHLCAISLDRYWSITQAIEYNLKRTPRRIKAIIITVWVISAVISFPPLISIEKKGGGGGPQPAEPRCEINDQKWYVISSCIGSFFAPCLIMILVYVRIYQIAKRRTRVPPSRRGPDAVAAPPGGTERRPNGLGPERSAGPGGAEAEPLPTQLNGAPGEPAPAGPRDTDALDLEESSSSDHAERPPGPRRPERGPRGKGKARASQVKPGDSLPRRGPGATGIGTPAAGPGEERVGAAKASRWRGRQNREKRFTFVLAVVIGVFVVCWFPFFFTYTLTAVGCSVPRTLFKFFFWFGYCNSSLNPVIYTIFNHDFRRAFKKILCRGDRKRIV

[8] = biological target: T2, 5-hydroxytryptamine receptor 1A (Homo sapiens, UniProt P08908); experiment: Binding affinity to 5-HT1A receptor
T2 sequence (P08908 whole entry): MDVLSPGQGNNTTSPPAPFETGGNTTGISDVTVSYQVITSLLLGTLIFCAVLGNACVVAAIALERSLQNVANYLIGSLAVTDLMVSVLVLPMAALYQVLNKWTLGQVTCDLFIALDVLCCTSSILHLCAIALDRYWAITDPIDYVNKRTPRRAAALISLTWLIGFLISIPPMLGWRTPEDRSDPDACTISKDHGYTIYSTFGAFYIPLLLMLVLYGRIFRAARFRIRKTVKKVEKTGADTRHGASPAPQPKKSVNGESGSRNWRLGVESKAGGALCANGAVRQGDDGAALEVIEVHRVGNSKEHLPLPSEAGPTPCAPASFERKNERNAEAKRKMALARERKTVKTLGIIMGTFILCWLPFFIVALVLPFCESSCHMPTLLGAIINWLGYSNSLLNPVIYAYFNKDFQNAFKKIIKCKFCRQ

[9] = biological target: 5-hydroxytryptamine receptor 6 (Homo sapiens, UniProt P50406); experiment: Binding affinity to 5-HT6 receptor
5-hydroxytryptamine receptor 6, sequence (P50406 whole entry): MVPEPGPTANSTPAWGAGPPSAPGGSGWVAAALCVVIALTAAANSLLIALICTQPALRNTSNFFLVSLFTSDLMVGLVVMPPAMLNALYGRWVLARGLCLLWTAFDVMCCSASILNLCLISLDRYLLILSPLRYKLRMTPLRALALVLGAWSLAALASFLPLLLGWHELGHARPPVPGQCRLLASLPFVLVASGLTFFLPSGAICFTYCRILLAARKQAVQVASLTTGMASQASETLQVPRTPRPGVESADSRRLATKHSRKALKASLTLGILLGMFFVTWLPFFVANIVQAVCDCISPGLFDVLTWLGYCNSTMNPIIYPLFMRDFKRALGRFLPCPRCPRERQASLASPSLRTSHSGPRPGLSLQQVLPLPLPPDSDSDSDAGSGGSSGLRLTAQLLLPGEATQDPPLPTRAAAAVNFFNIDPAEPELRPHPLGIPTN

hERG (KCNH2) = hERG (KCNH2) (Homo sapiens, UniProt Q12809); experiment: Inhibition of human ERG at 10 uM by IonWorks assay
hERG (KCNH2), sequence (Q12809 whole entry): as the sequence (Q12809 whole entry) above

Structure (SMILES) | Ki (Histamine H3 receptor [1]) [nM] | Ki (Histamine H3 receptor [2]) [nM] | also measured
N#Cc1cccc(-c2ccc3c(c2)CCN(CCN2CCCC2)C3=O)c1 | 73 | 3.4 | –
N#Cc1ccc(-c2ccc3c(c2)CCN(CCCN2CCCCC2)C3=O)cc1 | 153 | 18 | –
O=C1c2ccc(-c3ccc(C(F)(F)F)cc3)cc2CCN1CCN1CCCC1 | 101 | 9.3 | –
O=C1c2ccc(-c3ccccc3)cc2CCN1CCN1CCCC1 | 145 | 11.4 | –
O=C1c2ccc(-n3cnc4ccccc43)cc2CCN1CCN1CCCC1 | 174 | 0.8 | –
O=C(c1ccc(-c2ccc3c(c2)CCN(CCN2CCCC2)C3=O)cc1Cl)N1CCCC1 | – | 1.6 | IC50 [3]: 9300 nM
C[C@H]1CCCN1CCN1CCc2cc(-c3ccc(C#N)cc3)ccc2C1=O | 49 | – | –
CCNC(=O)c1ccc(-c2ccc3c(c2)CCN(CCN2CCCC2)C3=O)cc1 | – | 1.2 | –
CCNC(=O)c1ccc(-c2ccc3c(c2)CCN(CCN2CCC[C@H]2C)C3=O)cc1 | – | 1 | Ki (Histamine H1 receptor): 7230 nM; Ki [4]: > 10000 nM; IC50 [3]: 7400 nM; Ki (Histamine H2 receptor): > 10000 nM; Ki (D(2) dopamine receptor): > 10000 nM; Ki [5]: 300 nM; Ki [6]: > 10000 nM; Ki [7]: > 3000 nM; Ki [8]: 10100 nM; Ki [9]: > 10000 nM
O=C1c2ccc(-c3ccncc3)cc2CCN1CCN1CCCC1 | – | 7.8 | inhibition at 10 µM (hERG (KCNH2)): 93%
CNC(=O)c1ccc(-c2ccc3c(c2)CCN(CCN2CCCC2)C3=O)c(F)c1 | – | 1.7 | –
O=C1c2ccc(-c3cccc(F)c3)cc2CCN1CCN1CCCC1 | 164 | 11.6 | –
CNC(=O)c1ccc(-c2ccc3c(c2)CCN(CCN2CCCC2)C3=O)cc1 | – | 1.3 | –
O=C(c1ccc(-c2ccc3c(c2)CCN(CCN2CCCC2)C3=O)cc1)N1CCCC1 | – | 2.4 | –
C[C@@H]1CCCN1CCN1Cc2cc(-c3ccc(C#N)cc3)ccc2C1=O | – | 23.8 | inhibition at 10 µM (hERG (KCNH2)): 98%
C[C@@H]1CCCN1C(=O)c1ccc(-c2ccc3c(c2)CCN(CCN2CCCC2)C3=O)cc1 | – | 1.7 | Ki (Histamine H1 receptor): > 10000 nM; Ki [4]: > 10000 nM; IC50 [3]: 10500 nM; Ki (Histamine H2 receptor): > 10000 nM; Ki (D(2) dopamine receptor): > 10000 nM; Ki [5]: 320 nM; Ki [6]: > 10000 nM; Ki [7]: > 3000 nM; Ki [8]: 9720 nM; Ki [9]: > 10000 nM
O=C1c2ccc(-c3ccc(F)c(F)c3)cc2CCN1CCN1CCCC1 | 82 | 7.7 | –
C[C@@H]1CCCN1CCN1CCc2cc(Oc3ccc(C#N)cn3)ccc2C1=O | – | 1.2 | inhibition at 10 µM (hERG (KCNH2)): 89%
O=C(NC1CC1)c1ccc(-c2ccc3c(c2)CCN(CCN2CCCC2)C3=O)cc1 | – | 2.7 | IC50 [3]: 11000 nM
O=C1c2ccc(-c3ccc(F)cc3F)cc2CCN1CCN1CCCC1 | 153 | 8.1 | –
O=C(NC1CCC1)c1ccc(-c2ccc3c(c2)CCN(CCN2CCCC2)C3=O)cc1 | – | 2.1 | IC50 [3]: 2500 nM
CNC(=O)c1ccc(-c2ccc3c(c2)CCN(CCN2CCC[C@H]2C)C3=O)cc1 | – | 1 | IC50 [3]: 17000 nM
O=C1c2ccc(-c3ccccc3F)cc2CCN1CCN1CCCC1 | 174 | 14.1 | –
CN(C)C(=O)c1ccc(-c2ccc3c(c2)CCN(CCN2CCCC2)C3=O)c(F)c1 | – | 3.1 | IC50 [3]: 32500 nM
